Data published in patent US20200385371A1 (Propellon Therapeutics Inc., priority 2017, published 2020).
Counter-ions that a name gives are not always drawn.

Tests used:
WDR5 [1] = target: T1, WDR5 (Homo sapiens, UniProt P61964); test: Surface Plasmon Resonance (SPR) assay; assay type: binding; design: Full length WDR5 with an N-terminal His tag and C-terminal AviTag; His tag (N); made in house; host or cells: E. coli; conditions: read-out: SPR Kd
Method: Exemplary compounds of the application were dissolved in 100% DMSO at 10 mM, assayed fresh, and then stored at −20° C. for repeat studies and other experiments. Full length WDR5 with an N-terminal His tag and C-terminal AviTag (Avidity Inc.) was expressed in E. coli with coexpression of BirA to biotin label the protein in vivo. Purification was via Ni-NTA.
SPR studies were performed using a Biacore™ T200 instrument (GE Health Sciences Inc.). Biotinylated WDR5 protein (approximately 3000RU) was stably captured to streptavidin coupled SA chips according to the manufacture's protocol (GE Health Sciences Inc.). The running buffer used was HBS-EP (20 mM Hepes pH 7.4, 150 mM NaCl, 3 mM EDTA, 0.05% P-20) plus 5% DMSO with a flow rate of 40 μl/min. For SPR analysis, 5 different concentrations of each exemplary compound of the application were sprayed into 96 or 384 well plates using an HP D300 digital dispenser. The concentration ranged from about 195 nM to about 12 nM in a two-fold series. […] Curve fitting and KD calculations were performed with the Biacore T200 Evalutation software (GE Health Sciences Inc).

WDR5 [2] = target: T1, WDR5; test: Fluorescence Polarization (FP) binding assay
Method: H3 (1-15) ([…]), and 9-Ala-FAM ((Ac)-[…]-(Ahx-Ahx)-K(5,6-FAM)) (where Ahx represents 6 amino hexanoic acid linkers) peptides for WDR5 were synthesized, N-terminal-labeled with isothiocyanate-fluorescein, and purified by Tufts University Core Services (Boston, Mass.). Compound binding assays were performed at a constant labeled peptide concentration of 30 or 20 nM for H3 (1-15) and 9-Ala-FAM respectively. WDR5 concentrations of 0.3 μM for H3 (1-15) and 0.05 μM for 9-Ala-FAM were used. For both the H3 (1-15) and 9-Ala-FAM peptides, 80 mM sodium phosphate buffer (pH 6.5), 20 mM KCl, and 0.008% Triton X-100 was used. For the H3 (1-15) peptide, FP assays were measured in 10 μl aliquots in 384-well Axygen plates using a Synergy 4 microplate reader (BioTek) with an excitation wavelength of 485 nm and emission wavelength of 528 nm. For the 9-Ala-FAM peptide, FP assays were measured in 125 μl aliquots in 96 well Microfluor plates using a ViewLux instrument (Perkin Elmer) with an excitation wavelength of 480 nm and emission wavelength of 540 nm. To determine Kdsp values, the data were fit to a hyperbolic function using Sigma Plot software (Systat Software). The Kdisp values represent the average of quadruplicate measurements.

MV4-11 cells = test: Cell proliferation assay (ATPlite); assay type: cell-based; conditions: Homo sapiens, 120 h; MV4-11 cells, five days; read-out: GI MV411 EC50
Method: MV4-11 cells were seeded into a 96-well plate at 1,000 cells/well in 150 μl medium (Alpha-MEM containing 10% FBS, 100 μg/ml Normocin, and 50 μg/ml Gentamycin, Invitrogen). A HP D300 digital dispenser was used to dose cells with DMSO or test compounds across a 10-point range of concentrations (high dose of 10 μM), and cultures were grown in a humidified 5% CO2 incubator at 37° C. After five days, plates were removed from incubator and equilibrated to room temperature. An equal volume of ATPlite assay reagent was added to each well, and samples were processed according to manufacturer's instructions (Perkin Elmer). Luminescent signal was measured using an Envision plate reader equipped with a US-Luminescence detector.

| Kd (WDR5 [1]) [nM] | IC50 (WDR5 [2]) [nM] | EC50 (MV4-11 cells) [nM] | Compound |
| --- | --- | --- | --- |
| 4.49 | 22.2 | 316 | C[C@@H]1CN(c2cc(F)c(-c3ccc(C(N)=O)c(F)c3F)c(F)c2NC(=O)c2c[nH]c(=O)cc2C(F)(F)F)C[C@H](C)N1C [Example 26, N-(4′-carbamoyl-2,2′,3′,6-tetrafluoro-4-((3S,5R)-3,4,5-trimethylpiperazin-1-yl)-[1,1′-biphenyl]-3-yl)-6-oxo-4-(trifluoromethyl)-1,6-dihydropyridine-3-carboxamide] |
| 3 | 24.9 | 101 | CNC(=O)c1ccc(-c2c(F)cc(N3C[C@@H](C)N(C)[C@@H](C)C3)c(NC(=O)c3c[nH]c(=O)cc3C(F)(F)F)c2F)cc1F [Example 24, 6-Oxo-N-(2,3′,6-trifluoro-4′-(methylcarbamoyl)-4-((3S,5R)-3,4,5-trimethylpiperazin-1-yl)-[1,1′-biphenyl]-3-yl)-4-(trifluoromethyl)-1,6-dihydropyridine-3-carboxamide] |
| 1.68 | 14.9 | 61.8 | CC(C)[C@@H]1CN(c2nccc(-c3c(F)cc(N4CCN(C)[C@@H](C)C4)c(NC(=O)c4c[nH]c(=O)cc4C(F)(F)F)c3F)n2)CCO1 [Example 123, N-(6-((S)-3,4-dimethylpiperazin-1-yl)-2,4-difluoro-3-(2-((R)-2-isopropylmorpholino)pyrimidin-4-yl)phenyl)-6-oxo-4-(trifluoromethyl)-1,6-dihydropyridine-3-carboxamide] |
| 2.79 | 15.6 | 22.8 | C[C@H]1CN(c2cc(F)c(C3=CCN(C(=O)OC4(C)CCC4)CC3)c(F)c2NC(=O)c2c[nH]c(=O)cc2C(F)F)CCN1C [Example 92, 1-Methylcyclobutyl(S)-4-(3-(4-(difluoromethyl)-6-oxo-1,6-dihydropyridine-3-carboxamido)-4-(3,4-dimethylpiperazin-1-yl)-2,6-difluorophenyl)-3,6-dihydropyridine-1(2H)-carboxylate] |
| 1.57 | 24.6 | 255 | C[C@@H]1CN(c2ccc(-c3c(F)cc(N4CCN(C)[C@@H](C)C4)c(NC(=O)c4cn(C)c(=O)cc4C(F)F)c3F)cn2)C[C@H](C)O1 [Example 175, 4-(Difluoromethyl)-N-(3-(6-((2S,6R)-2,6-dimethylmorpholino)pyridin-3-yl)-6-((S)-3,4-dimethylpiperazin-1-yl)-2,4-difluorophenyl)-1-methyl-6-oxo-1,6-dihydropyridine-3-carboxamide] |
| 0.83 | 12.5 | 30.8 | C[C@H]1CN(c2cc(F)c(-c3cnc(N4C[C@H]5CC[C@@H](C4)O5)nc3)c(F)c2NC(=O)c2c[nH]c(=O)cc2C(F)(F)F)CCN1C [Example 89, N-(3-(2-((1R,5S)-8-oxa-3-azabicyclo[3.2.1]octan-3-yl)pyrimidin-5-yl)-6-((S)-3,4-dimethylpiperazin-1-yl)-2,4-difluorophenyl)-6-oxo-4-(trifluoromethyl)-1,6-dihydropyridine-3-carboxamide] |
| 2.62 | 14.3 | 60.1 | C[C@H]1CN(c2cc(F)c(C3=CCN(c4ccnc(C#N)n4)C3)c(F)c2NC(=O)c2c[nH]c(=O)cc2C(F)(F)F)CCN1C [Example 107, (S)—N-(3-(1-(2-cyanopyrimidin-4-yl)-2,5-dihydro-1H-pyrrol-3-yl)-6-(3,4-dimethylpiperazin-1-yl)-2,4-difluorophenyl)-6-oxo-4-(trifluoromethyl)-1,6-dihydropyridine-3-carboxamide] |
| 2.54 | 13.1 | 468 | Cc1nc(C(=O)N2CCC=C(c3c(F)cc(N4C[C@@H](C)N(C)[C@@H](C)C4)c(NC(=O)c4c[nH]c(=O)cc4C(F)(F)F)c3F)C2)cs1 [Example 188, N-(2,4-difluoro-3-(1-(2-methylthiazole-4-carbonyl)-1,2,5,6-tetrahydropyridin-3-yl)-6-((3S,5R)-3,4,5-trimethylpiperazin-1-yl)phenyl)-6-oxo-4-(trifluoromethyl)-1,6-dihydropyridine-3-carboxamide] |
| 0.73 | 11.7 | 63.6 | C[C@H]1CN(c2ncc(-c3c(F)cc(N4CCN(C)[C@@H](C)C4)c(NC(=O)c4ccc(F)cc4C(F)(F)F)c3F)cn2)C[C@H](C)O1 [Example 166, N-(3-(2-((2S,6S)-2,6-dimethylmorpholino)pyrimidin-5-yl)-6-((S)-3,4-dimethylpiperazin-1-yl)-2,4-difluorophenyl)-4-fluoro-2-(trifluoromethyl)benzamide Formic Acid Salt] |
| 0.82 | 21.3 | 31 | C[C@@H]1CN(c2ncc(-c3c(F)cc(N4C[C@@H](C)N(C)[C@@H](C)C4)c(NC(=O)c4c[nH]c(=O)cc4C(F)(F)F)c3F)cn2)C[C@H](C)O1 [Example 8, N-(3-(2-((2S,6R)-2,6-dimethylmorpholino)pyrimidin-5-yl)-2,4-difluoro-6-((3S,5R)-3,4,5-trimethylpiperazin-1-yl)phenyl)-6-oxo-4-(trifluoromethyl)-1,6-dihydropyridine-3-carboxamide] |
| 0.66 | 11.5 | 75.5 | C[C@@H]1CN(c2ncc(-c3c(F)cc(N4CCN(C)[C@@H](C)C4)c(NC(=O)c4ccc(F)cc4C(F)(F)F)c3F)cn2)C[C@@H](C)O1 [Example 167, N-(3-(2-((2R,6R)-2,6-dimethylmorpholino)pyrimidin-5-yl)-6-((S)-3,4-dimethylpiperazin-1-yl)-2,4-difluorophenyl)-4-fluoro-2-(trifluoromethyl)benzamide Formic Acid Salt] |
| 1.81 | 13 | 61.8 | C[C@@H]1CN(c2cc(F)c(-c3cnc(N(C)C)c(F)c3)c(F)c2NC(=O)c2c[nH]c(=O)cc2C(F)(F)F)C[C@H](C)N1C [Example 63, N-(3-(6-(dimethylamino)-5-fluoropyridin-3-yl)-2,4-difluoro-6-((3S,5R)-3,4,5-trimethylpiperazin-1-yl)phenyl)-6-oxo-4-(trifluoromethyl)-1,6-dihydropyridine-3-carboxamide] |
| 1.16 | 14.9 | 42 | C[C@@H]1CN(c2cc(F)c(C3=CCN(C(=O)OC4CC(F)(F)C4)C3)c(F)c2NC(=O)c2c[nH]c(=O)cc2C(F)(F)F)C[C@H](C)N1C [Example 136, 3,3-Difluorocyclobutyl 3-(2,6-difluoro-3-(6-oxo-4-(trifluoromethyl)-1,6-dihydropyridine-3-carboxamido)-4-((3S,5R)-3,4,5-trimethylpiperazin-1-yl)phenyl)-2,5-dihydro-1H-pyrrole-1-carboxylate] |
| 1.27 | 23 | 58.3 | C[C@H]1CN(c2cc(F)c(C3=CCN(c4ncc(F)cn4)C3)c(F)c2NC(=O)c2c[nH]c(=O)cc2C(F)(F)F)CCN1C [Example 80, (S)—N-(6-(3,4-dimethylpiperazin-1-yl)-2,4-difluoro-3-(1-(5-fluoropyrimidin-2-yl)-2,5-dihydro-1H-pyrrol-3-yl)phenyl)-6-oxo-4-(trifluoromethyl)-1,6-dihydropyridine-3-carboxamide] |
| 1.37 | 19.5 | 358 | COc1cc(N2CCC=C(c3c(F)cc(N4CCN(C)[C@@H](C)C4)c(NC(=O)c4c[nH]c(=O)cc4C(F)(F)F)c3F)C2)ncn1 [Example 68, (S)—N-(6-(3,4-dimethylpiperazin-1-yl)-2,4-difluoro-3-(1-(6-methoxypyrimidin-4-yl)-1,2,5,6-tetrahydropyridin-3-yl)phenyl)-6-oxo-4-(trifluoromethyl)-1,6-dihydropyridine-3-carboxamide] |
